Several values for one entry are separate records, joined by “and”; a condition that tells them apart may be missing. Equal values may be shown once. Inconclusive results and toxic doses are left out. How the source made its calls: active means survival T/C of 150% or more; inactive means T/C below 125% in these data.
Test system: P388 leukemia ip, CD2F1 mice, survival T/C
Assay: NCI In Vivo Anticancer Drug Screen. Data for tumor model P388 Leukemia (intraperitoneal) in CD2F1 (CDF1) mice
Settings: endpoint: median survival time, higher = longer survival
Summary of the method: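 Mice carrying the transplanted tumor received test compound or vehicle. Survival was recorded in each group, and the value is the treated-group measurement divided by that of the vehicle-treated control group.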

[1] = dose: 50.0 mg/kg/injection, schedule: Q01DX005 (ip), vehicle: saline with Tween-80
[2] = dose: 100.0 mg/kg/injection, schedule: Q01DX005 (ip), vehicle: saline with Tween-80
[3] = dose: 200.0 mg/kg/injection, schedule: Q01DX005 (ip), vehicle: saline with Tween-80
[4] = dose: 12.5 mg/kg/injection, schedule: Q01DX009 (ip), vehicle: saline
[5] = dose: 25.0 mg/kg/injection, schedule: Q01DX009 (ip), vehicle: saline
[6] = dose: 50.0 mg/kg/injection, schedule: Q01DX009 (ip), vehicle: saline with Tween-80
[7] = dose: 100.0 mg/kg/injection, schedule: Q01DX009 (ip), vehicle: saline with Tween-80
[8] = dose: 50.0 mg/kg/injection, schedule: Q01DX009 (ip), vehicle: Klucel (hydroxypropylcellulose) (HPC)
[9] = dose: 100.0 mg/kg/injection, schedule: Q01DX009 (ip), vehicle: Klucel (hydroxypropylcellulose) (HPC)
[10] = dose: 200.0 mg/kg/injection, schedule: Q01DX009 (ip), vehicle: Klucel (hydroxypropylcellulose) (HPC)
[11] = dose: 50.0 mg/kg/injection, schedule: Q01DX005 (ip), vehicle: Klucel (hydroxypropylcellulose) (HPC)
[12] = dose: 100.0 mg/kg/injection, schedule: Q01DX005 (ip), vehicle: Klucel (hydroxypropylcellulose) (HPC)
[13] = dose: 200.0 mg/kg/injection, schedule: Q01DX005 (ip), vehicle: Klucel (hydroxypropylcellulose) (HPC)
[14] = dose: 60.0 mg/kg/injection, schedule: Q01DX005 (ip), vehicle: saline

Measured: T/C

COc1ccc(Cl)[n+]([O-])n1
inactive: dose: 6.25 mg/kg/injection, schedule: Q04DX002 (ip), vehicle: Klucel (hydroxypropylcellulose) (HPC) 111 % of control | dose: 12.5 mg/kg/injection, schedule: Q04DX002 (ip), vehicle: Klucel (hydroxypropylcellulose) (HPC) 122 % of control | dose: 25.0 mg/kg/injection, schedule: Q04DX002 (ip), vehicle: Klucel (hydroxypropylcellulose) (HPC) 120 % of control | dose: 25.0 mg/kg/injection, schedule: Q04DX002 (ip), vehicle: saline 104 % of control | dose: 50.0 mg/kg/injection, schedule: Q04DX002 (ip), vehicle: Klucel (hydroxypropylcellulose) (HPC) 117 % of control | dose: 50.0 mg/kg/injection, schedule: Q04DX002 (ip), vehicle: saline 122 % of control | dose: 100.0 mg/kg/injection, schedule: Q04DX002 (ip), vehicle: saline 106 % of control

CCN1CC2(C)CCC(OC)C34C5CC6CCC(O)(C5C(=O)O6)C(C(OC(C)=O)C23)C14 (stereo not given)
inactive: dose: 3.0 mg/kg/injection, schedule: Q01DX009 (ip), vehicle: saline 100 % of control | dose: 6.0 mg/kg/injection, schedule: Q01DX009 (ip), vehicle: saline 101 % of control | dose: 12.0 mg/kg/injection, schedule: Q01DX009 (ip), vehicle: saline 98 % of control

O=[N+]([O-])c1ccc(O)c(/C=N\NS(=O)(=O)c2ccc(Cl)cc2)c1
inactive: [1] 108 % of control | [2] 100 % of control

Cc1cnc(C)[nH]1
inactive: [1] 102 % of control | [2] 86 % of control | [3] 102 % of control

COC(=O)c1[nH]c(=O)c2cccnc2c1O
inactive: dose: 6.25 mg/kg/injection, schedule: Q01DX009 (ip), vehicle: saline 104 % of control | [4] 100 % of control | [5] 92 % of control | [6] 103 % of control | [7] 98 % of control

O=C1c2ccccc2C(=O)c2c(NC(=O)c3ccc4c5c(ncnc35)-c3ccccc3C4=O)cccc21
inactive: [8] 95 % of control | [9] 100 % of control | [10] 94 % of control

CNC(=O)Oc1ccc2c(c1)[C@]1(C)CCN(C)[C@@H]1N2C
inactive: dose: 0.05 mg/kg/injection, schedule: Q01DX005 (ip), vehicle: saline with Tween-80 98 % of control | dose: 0.05 mg/kg/injection, schedule: Q01DX009 (ip), vehicle: saline 102 % of control | dose: 0.1 mg/kg/injection, schedule: Q01DX005 (ip), vehicle: saline with Tween-80 99 % of control | dose: 0.1 mg/kg/injection, schedule: Q01DX009 (ip), vehicle: saline 101 % of control | dose: 0.2 mg/kg/injection, schedule: Q01DX005 (ip), vehicle: saline with Tween-80 99 % of control | dose: 0.2 mg/kg/injection, schedule: Q01DX009 (ip), vehicle: saline 97 % of control | dose: 0.4 mg/kg/injection, schedule: Q01DX005 (ip), vehicle: saline with Tween-80 93 % of control | dose: 0.4 mg/kg/injection, schedule: Q01DX009 (ip), vehicle: saline 111 % of control

NCCNCCN1C(=O)c2cccc3cccc(c23)C1=O
inactive: dose: 100.0 mg/kg/injection, schedule: Q01DX001 (ip), vehicle: saline 110 % of control | dose: 200.0 mg/kg/injection, schedule: Q01DX001 (ip), vehicle: saline 86 % of control

CCCCCCCCCCCCCCCC[N+](C)(C)Cc1ccccc1
inactive: dose: 6.25 mg/kg/injection, schedule: Q04DX003 (ip), vehicle: saline 98 % of control | dose: 12.5 mg/kg/injection, schedule: Q04DX003 (ip), vehicle: saline 98 % of control | dose: 25.0 mg/kg/injection, schedule: Q04DX003 (ip), vehicle: saline 100 % of control

CC1(C)CC(=O)C(C(c2cccc(O)c2O)C2C(=O)CC(C)(C)CC2=O)C(=O)C1
inactive: dose: 12.5 mg/kg/injection, schedule: Q01DX009 (ip), vehicle: saline with Tween-80 100 % of control and 96 % of control | dose: 25.0 mg/kg/injection, schedule: Q01DX009 (ip), vehicle: saline with Tween-80 92 % of control | [6] 93 % of control and 96 % of control | [7] 92 % of control and 94 % of control

CC1CCCN2C(=O)CN(c3ccccc3)CC(=O)N12 (stereo not given)
inactive: [1] 98 % of control | [2] 103 % of control | [3] 99 % of control

O=C(OCC12OC1C(=O)C1OC1C2O)c1ccccc1 (stereo not given)
inactive: dose: 1.88 mg/kg/injection, schedule: Q04DX002 (ip), vehicle: saline with Tween-80 104 % of control | dose: 3.75 mg/kg/injection, schedule: Q04DX002 (ip), vehicle: saline with Tween-80 105 % of control | dose: 7.5 mg/kg/injection, schedule: Q04DX002 (ip), vehicle: saline with Tween-80 101 % of control

CC(O)C(=O)N(CCO)CCO (stereo not given)
inactive: dose: 50.0 mg/kg/injection, schedule: Q01DX005 (ip), vehicle: saline 108 % of control | dose: 100.0 mg/kg/injection, schedule: Q01DX005 (ip), vehicle: saline 101 % of control | dose: 200.0 mg/kg/injection, schedule: Q01DX005 (ip), vehicle: saline 104 % of control

CCCCC(CCCCCC(CCCC)C1NCCc2cc(OC)c(OC)cc21)C1NCCc2cc(OC)c(OC)cc21 (stereo not given)
inactive: dose: 6.25 mg/kg/injection, schedule: Q01DX005 (ip), vehicle: saline with Tween-80 91 % of control | dose: 12.5 mg/kg/injection, schedule: Q01DX005 (ip), vehicle: saline with Tween-80 93 % of control | dose: 25.0 mg/kg/injection, schedule: Q01DX005 (ip), vehicle: saline with Tween-80 93 % of control

CC1(C)O[S+](c2ccccc2)c2ccccc21 (stereo not given)
inactive: [8] 102 % of control | [9] 107 % of control | [10] 108 % of control

COC(=O)CCSC(=S)NCc1ccccc1
inactive: [11] 98 % of control | [12] 96 % of control | [13] 102 % of control

Cc1n[nH]c(=S)n1C
inactive: dose: 43.75 mg/kg/injection, schedule: Q04DX003 (ip), vehicle: saline sonified 95 % of control | dose: 87.5 mg/kg/injection, schedule: Q04DX003 (ip), vehicle: saline sonified 100 % of control | dose: 175.0 mg/kg/injection, schedule: Q04DX003 (ip), vehicle: saline sonified 90 % of control

CCc1ccc(/C=C/C(=O)C(C)CN(C)C)cc1 (stereo not given)
inactive: [14] 105 % of control | dose: 120.0 mg/kg/injection, schedule: Q01DX005 (ip), vehicle: saline 118 % of control

c1ccc2c(c1)ccc1c(NCCCCCCNc3c4ccccc4nc4c3ccc3ccccc34)c3ccccc3nc12
inactive: [8] 93 % of control | [9] 96 % of control | [10] 105 % of control

COc1cc(S(=O)(=O)O)ccc1N=N/C(=N\Nc1ccc(S(=O)(=O)O)cc1OC)C(N)=O
inactive: [11] 100 % of control | [12] 108 % of control and 92 % of control | [13] 103 % of control and 93 % of control

CCc1nc(N)nc(N)c1-c1ccc(NCCN)c(N)c1
inactive: dose: 12.5 mg/kg/injection, schedule: Q01DX005 (ip), vehicle: Klucel (hydroxypropylcellulose) (HPC) 104 % of control | dose: 25.0 mg/kg/injection, schedule: Q01DX005 (ip), vehicle: Klucel (hydroxypropylcellulose) (HPC) 101 % of control | [11] 103 % of control and 107 % of control

CC(CN(C)C)C(=O)/C=C/c1ccc(F)cc1 (stereo not given)
inactive: dose: 30.0 mg/kg/injection, schedule: Q01DX005 (ip), vehicle: saline 100 % of control | [14] 101 % of control and 110 % of control

NC(=O)N=Nc1cccc(Cl)c1
inactive: [1] 98 % of control | [2] 104 % of control | [3] 104 % of control

CCCCCCCCCC[N+](C)(C)CC(O)CO (stereo not given)
inactive: [4] 94 % of control | [5] 105 % of control | dose: 50.0 mg/kg/injection, schedule: Q01DX009 (ip), vehicle: saline 111 % of control
